Experimental data taken from ChEMBL document CHEMBL3045441, “Microwave-assisted CAN-catalyzed solvent-free synthesis of N-allyl quinolone-based pyrano[4,3-b]chromene and benzopyrano[3,2-c]chromene derivatives and their antimicrobial activity” (2013).
In brackets after ≈: the same amount, converted by molar mass.

Assays:
Type in all cases: functional
Escherichia coli = experiment: Antimicrobial activity against Escherichia coli MTCC 443 assessed as growth inhibition after 24 hr by NCCLS broth microdilution method; conditions: MTCC 443, 24 h
Streptococcus pyogenes = experiment: Antimicrobial activity against Streptococcus pyogenes MTCC 442 assessed as growth inhibition after 24 hr by NCCLS broth microdilution method; conditions: MTCC 442, 24 h
Aspergillus clavatus = experiment: Antimicrobial activity against Aspergillus clavatus MTCC 1323 assessed as growth inhibition after 48 hr by NCCLS broth microdilution method
Candida albicans = experiment: Antimicrobial activity against Candida albicans MTCC 227 assessed as growth inhibition after 48 hr by NCCLS broth microdilution method
Aspergillus niger = experiment: Antimicrobial activity against Aspergillus niger MTCC 282 assessed as growth inhibition after 48 hr by NCCLS broth microdilution method
Pseudomonas aeruginosa = experiment: Antimicrobial activity against Pseudomonas aeruginosa MTCC 1688 assessed as growth inhibition after 24 hr by NCCLS broth microdilution method; conditions: MTCC 1688, 24 h
Staphylococcus aureus = experiment: Antimicrobial activity against Staphylococcus aureus MTCC 96 assessed as growth inhibition after 24 hr by NCCLS broth microdilution method; conditions: MTCC 96, 24 h

| Compound | MIC (Escherichia coli) | MIC (Streptococcus pyogenes) | MIC (Aspergillus clavatus; MTCC 1323, 48 h) | MIC (Candida albicans; MTCC 227, 48 h) | MIC (Aspergillus niger; MTCC 282, 48 h) | MIC (Pseudomonas aeruginosa) | MIC (Staphylococcus aureus) | MIC (Aspergillus clavatus) | MIC (Candida albicans) | MIC (Aspergillus niger) |
| --- | --- | --- | --- | --- | --- | --- | --- | --- | --- | --- |
| C=CCn1c(=O)c(C2C3=C(CC(C)(C)CC3=O)Oc3cc(C)oc(=O)c32)cc2cc(OC)ccc21 (stereo not drawn) | 500 µg/mL (≈ 1060 µM) | 250 µg/mL (≈ 528 µM) | 1000 µg/mL (≈ 2110 µM) | 500 µg/mL (≈ 1060 µM) | 1000 µg/mL (≈ 2110 µM) | 500 µg/mL (≈ 1060 µM) | 250 µg/mL (≈ 528 µM) |  |  |  |
| C=CCn1c(=O)c(C2C3=C(CCCC3=O)Oc3c2c(=O)oc2ccccc32)cc2ccccc21 (stereo not drawn) | 62.5 µg/mL (≈ 138 µM) | 200 µg/mL (≈ 443 µM) | > 1000 µg/mL | 500 µg/mL (≈ 1110 µM) | > 1000 µg/mL | 100 µg/mL (≈ 221 µM) | 200 µg/mL (≈ 443 µM) |  |  |  |
| C=CCn1c(=O)c(C2C3=C(CC(C)(C)CC3=O)Oc3c2c(=O)oc2ccccc32)cc2cc(C)ccc21 (stereo not drawn) | 200 µg/mL (≈ 405 µM) | 250 µg/mL (≈ 507 µM) | 500 µg/mL (≈ 1010 µM) | 500 µg/mL (≈ 1010 µM) | 500 µg/mL (≈ 1010 µM) | 50 µg/mL (≈ 101 µM) | 125 µg/mL (≈ 253 µM) |  |  |  |
| O=C(N[C@H](CO)[C@H](O)c1ccc([N+](=O)[O-])cc1)C(Cl)Cl [CHLORAMPHENICOL] | 50 µg/mL (≈ 155 µM) | 50 µg/mL (≈ 155 µM) |  |  |  | 50 µg/mL (≈ 155 µM) | 50 µg/mL (≈ 155 µM) |  |  |  |
| C=CCn1c(=O)c(C2C3=C(CCCC3=O)Oc3cc(C)oc(=O)c32)cc2cc(C)ccc21 (stereo not drawn) | 125 µg/mL (≈ 291 µM) | 500 µg/mL (≈ 1160 µM) | 1000 µg/mL (≈ 2330 µM) | 1000 µg/mL (≈ 2330 µM) | 500 µg/mL (≈ 1160 µM) | 250 µg/mL (≈ 582 µM) | 500 µg/mL (≈ 1160 µM) |  |  |  |
| CC1(C)S[C@@H]2[C@H](NC(=O)[C@H](N)c3ccccc3)C(=O)N2[C@H]1C(=O)O [AMPICILLIN] | 100 µg/mL (≈ 286 µM) | 100 µg/mL (≈ 286 µM) |  |  |  |  | 250 µg/mL (≈ 715 µM) |  |  |  |
| C=CCn1c(=O)c(C2C3=C(CC(C)(C)CC3=O)Oc3cc(C)oc(=O)c32)cc2cc(Cl)ccc21 (stereo not drawn) | 250 µg/mL (≈ 523 µM) | 125 µg/mL (≈ 262 µM) | > 1000 µg/mL | 1000 µg/mL (≈ 2090 µM) | > 1000 µg/mL | 500 µg/mL (≈ 1050 µM) | 125 µg/mL (≈ 262 µM) |  |  |  |
| C=CCn1c(=O)c(C2C3=C(CC(C)(C)CC3=O)Oc3c2c(=O)oc2ccccc32)cc2cc(Cl)ccc21 (stereo not drawn) | 100 µg/mL (≈ 195 µM) | 100 µg/mL (≈ 195 µM) | 1000 µg/mL (≈ 1950 µM) | 1000 µg/mL (≈ 1950 µM) | 1000 µg/mL (≈ 1950 µM) | 100 µg/mL (≈ 195 µM) | 62.5 µg/mL (≈ 122 µM) |  |  |  |
| C=CCn1c(=O)c(C2C3=C(CC(C)(C)CC3=O)Oc3cc(C)oc(=O)c32)cc2cc(C)ccc21 (stereo not drawn) | 500 µg/mL (≈ 1090 µM) | 125 µg/mL (≈ 273 µM) | 250 µg/mL (≈ 546 µM) | 1000 µg/mL (≈ 2190 µM) | 250 µg/mL (≈ 546 µM) | 125 µg/mL (≈ 273 µM) | 250 µg/mL (≈ 546 µM) |  |  |  |
| NYSTATIN |  |  |  |  |  |  |  | 100 µg/mL | 100 µg/mL | 100 µg/mL |
| C=CCn1c(=O)c(C2C3=C(CCCC3=O)Oc3cc(C)oc(=O)c32)cc2cc(Cl)ccc21 (stereo not drawn) | 500 µg/mL (≈ 1110 µM) | 100 µg/mL (≈ 222 µM) | 1000 µg/mL (≈ 2220 µM) | 1000 µg/mL (≈ 2220 µM) | 500 µg/mL (≈ 1110 µM) | 500 µg/mL (≈ 1110 µM) | 100 µg/mL (≈ 222 µM) |  |  |  |
| C=CCn1c(=O)c(C2C3=C(CCCC3=O)Oc3c2c(=O)oc2ccccc32)cc2cc(C)ccc21 (stereo not drawn) | 20 µg/mL (≈ 43 µM) | 250 µg/mL (≈ 537 µM) | 500 µg/mL (≈ 1070 µM) | 250 µg/mL (≈ 537 µM) | 500 µg/mL (≈ 1070 µM) | 100 µg/mL (≈ 215 µM) | 250 µg/mL (≈ 537 µM) |  |  |  |
| C=CCn1c(=O)c(C2C3=C(CCCC3=O)Oc3c2c(=O)oc2ccccc32)cc2cc(OC)ccc21 (stereo not drawn) | 100 µg/mL (≈ 208 µM) | 500 µg/mL (≈ 1040 µM) | 1000 µg/mL (≈ 2080 µM) | 500 µg/mL (≈ 1040 µM) | 1000 µg/mL (≈ 2080 µM) | 62.5 µg/mL (≈ 130 µM) | 62.5 µg/mL (≈ 130 µM) |  |  |  |
| C=CCn1c(=O)c(C2C3=C(CCCC3=O)Oc3c2c(=O)oc2ccccc32)cc2cc(Cl)ccc21 (stereo not drawn) | 200 µg/mL (≈ 412 µM) | 125 µg/mL (≈ 257 µM) | 1000 µg/mL (≈ 2060 µM) | 1000 µg/mL (≈ 2060 µM) | 1000 µg/mL (≈ 2060 µM) | 100 µg/mL (≈ 206 µM) | 125 µg/mL (≈ 257 µM) |  |  |  |
| COC1=CC(=O)C[C@@H](C)[C@]12Oc1c(Cl)c(OC)cc(OC)c1C2=O [GRISEOFULVIN] |  |  | 100 µg/mL (≈ 283 µM) | 500 µg/mL (≈ 1420 µM) | 100 µg/mL (≈ 283 µM) |  |  |  |  |  |
| O=C(O)c1cn(C2CC2)c2cc(N3CCNCC3)c(F)cc2c1=O [CIPROFLOXACIN] | 25 µg/mL (≈ 75.4 µM) | 50 µg/mL (≈ 151 µM) |  |  |  |  | 50 µg/mL (≈ 151 µM) |  |  |  |
| C=CCn1c(=O)c(C2C3=C(CC(C)(C)CC3=O)Oc3c2c(=O)oc2ccccc32)cc2cc(OC)ccc21 (stereo not drawn) | 250 µg/mL (≈ 491 µM) | 125 µg/mL (≈ 245 µM) | > 1000 µg/mL | 500 µg/mL (≈ 981 µM) | > 1000 µg/mL | 125 µg/mL (≈ 245 µM) | 125 µg/mL (≈ 245 µM) |  |  |  |
| C=CCn1c(=O)c(C2C3=C(CCCC3=O)Oc3cc(C)oc(=O)c32)cc2cc(OC)ccc21 (stereo not drawn) | 125 µg/mL (≈ 281 µM) | 200 µg/mL (≈ 449 µM) | 1000 µg/mL (≈ 2240 µM) | 500 µg/mL (≈ 1120 µM) | 1000 µg/mL (≈ 2240 µM) | 250 µg/mL (≈ 561 µM) | 200 µg/mL (≈ 449 µM) |  |  |  |
| C=CCn1c(=O)c(C2C3=C(CC(C)(C)CC3=O)Oc3c2c(=O)oc2ccccc32)cc2ccccc21 (stereo not drawn) | 500 µg/mL (≈ 1040 µM) | 500 µg/mL (≈ 1040 µM) | 1000 µg/mL (≈ 2090 µM) | 250 µg/mL (≈ 521 µM) | 1000 µg/mL (≈ 2090 µM) | 250 µg/mL (≈ 521 µM) | 250 µg/mL (≈ 521 µM) |  |  |  |
| C=CCn1c(=O)c(C2C3=C(CCCC3=O)Oc3cc(C)oc(=O)c32)cc2ccccc21 (stereo not drawn) | 125 µg/mL (≈ 301 µM) | 250 µg/mL (≈ 602 µM) | 200 µg/mL (≈ 481 µM) | 500 µg/mL (≈ 1200 µM) | 200 µg/mL (≈ 481 µM) | 200 µg/mL (≈ 481 µM) | 250 µg/mL (≈ 602 µM) |  |  |  |
| C=CCn1c(=O)c(C2C3=C(CC(C)(C)CC3=O)Oc3cc(C)oc(=O)c32)cc2ccccc21 (stereo not drawn) | 100 µg/mL (≈ 225 µM) | 250 µg/mL (≈ 564 µM) | 500 µg/mL (≈ 1130 µM) | 500 µg/mL (≈ 1130 µM) | 500 µg/mL (≈ 1130 µM) | 62.5 µg/mL (≈ 141 µM) | 500 µg/mL (≈ 1130 µM) |  |  |  |
